Results from ChEMBL document CHEMBL1125050, “Potential antisecretory antidiarrheals. 2. Alpha 2-adrenergic 2-[(aryloxy)alkyl]imidazolines” (J Med Chem, 1990).
The source made the active and inactive calls.

Legend:
[1] = organism: Rattus norvegicus; assay: animal or person; conditions: sc, read-out: ID50
[2] = Partition coefficient (logP); format: physicochemical; conditions: octanol/water
[3] = test system: Rattus norvegicus; format: functional; conditions: po, read-out: ID50 (the source's name)
[4] = organism: Rattus norvegicus; assay: Activity in the spontaneously hypertensive rats (SHR); active = post treatment BP changed; format: functional, organism-based
[5] = organism: Oryctolagus cuniculus; assay: Inhibition of increase in potential difference caused by diarrhea inducing secretogogues determined in rabbit; 0 = inactive; format: functional
[6] = organism: Oryctolagus cuniculus; assay: IInhibition of increase in potential difference caused by diarrhea inducing secretogogues determined in rabbit; 0 = inactive; format: functional
[7] = organism: Oryctolagus cuniculus; assay: Inhibition of increase in potential difference caused by diarrhea inducing secretogogues determined in rabbit; + = moderate activity; format: functional, organism-based
[8] = organism: Rattus norvegicus; assay: Activity in the spontaneously hypertensive rats (SHR); inactive = post treatment BP did not change; format: functional, organism-based
[9] = organism: Oryctolagus cuniculus; assay: Inhibition of increase in potential difference caused by diarrhea inducing secretogogues determined in rabbit; ++ = active; format: functional, organism-based
[10] = organism: Rattus norvegicus; assay: Activity in the spontaneously hypertensive rats (SHR); rats died due to exophthalmic side effects; format: functional, organism-based
[11] = organism: Rattus norvegicus; assay: Activity in the spontaneously hypertensive rats (SHR); rats died due to convulsive side effects; format: functional, organism-based
[12] = test system: Rattus norvegicus; format: functional; conditions: sc, read-out: ID50 (the source's name)

Row | Compound | ED50 [1] [mg/kg] | logP ([2]; read-out: logP) | Activity [5] | further results
1 | Cc1cccc(C)c1OC(C)c1nc2ccccc2[nH]1 (centres undefined) | > 100 |  |  | 
2 | CCC(Oc1cccc(N)c1C)C1=NCCN1 (centres undefined) | 4.5 | 3.19 |  | ED50 [3]: 5.2 mg/kg; Activity [4]: Active
3 | Cc1cccc(C)c1NC(C)C1=NCCN1 (centres undefined) | > 100 |  | 0 | 
4 | Cc1c(OC(C)C2=NCCN2)cccc1N(C)C (centres undefined) | 4 | 4 | 0 | 
5 | Cc1cccc(C)c1OC(C)C1=NCCS1 (centres undefined) | > 100 |  | 0 | 
6 | Cc1cccc(C)c1CC(C)C1=NCCN1 (centres undefined) | > 100 |  | 0 | 
7 | Cc1c(N)cccc1OC(C)C1=NCCN1.Cl.Cl (centres undefined) | 5.6 |  |  | logP [2]: 2; ED50 [3]: 1.3 mg/kg
8 | Cc1cc(N)cc(C)c1OC(C)C1=NCCN1 (centres undefined) | > 100 |  |  | Activity [6]: 0
9 | Cc1c(N)cccc1OC(C)C1=NCCN1 (stereo in doubt; 32) [listing 1 of 2 here] |  | 2 |  | 
10 | Cc1cccc(C)c1OCC1=NCCN1 | > 100 |  |  | Activity [7]: moderate activity
11 | CCc1cccc(CC)c1OC(C)C1=NCCN1 (centres undefined) | 2.3 | 5.41 |  | Activity [8]: inactive; Activity [9]: Active
12 | Cc1c(N)cccc1OC(C)C1=NCCN1 (stereo in doubt; 32) [listing 2 of 2 here] |  |  |  | Activity [4]: Active
13 | Cc1cc(C(=O)OC(C)(C)C)cc(C)c1OC(C)C1=NCCN1 (centres undefined) | > 100 |  |  | 
14 | CCCc1cccc(CCC)c1OC(C)C1=NCCN1 (centres undefined) | > 100 |  |  | Activity [7]: moderate activity
15 | Cc1cc2[nH]cnc2c(C)c1OC(C)C1=NCCN1 (centres undefined) | > 100 |  | 0 | 
16 | Cc1cc(C)c(OC(C)C2=NCCN2)cc1N (centres undefined) | 7.8 | 3.01 | 0 | 
17 | Cc1cccc(C)c1OC(C)C1=NCCN1C (centres undefined) | 32.4 |  |  | 
18 | CC(Oc1cccn2ncnc12)C1=NCCN1.CO (centres undefined) | 26.5 |  |  | 
19 | Cc1c(N)cccc1OC(C)C1=NCCN1 (centres undefined) |  |  |  | Activity [9]: Active

Row | Compound | ED50 [1] [mg/kg] | logP ([2]; read-out: logP) | Activity [5] | further results
20 | Cc1cccc(C)c1OC(C)C1=NCCCN1 (centres undefined) | > 100 |  | 0 | 
21 | Cc1c(N)cccc1OC(CCO)C1=NCCN1 (centres undefined) | 1.2 | 1.2 |  | Activity [10]: rats died due to exophthalmic side effects; ED50 [3]: 1.3 mg/kg
22 | C=CCc1cccc(CC=C)c1OC(C)C1=NCCN1 (centres undefined) | > 100 |  |  | 
23 | Cc1ccc(N)c(C)c1OC(C)C1=NCCN1 (centres undefined) | 1 | 3.31 |  | Activity [9]: Active; Activity [4]: Active
24 | Cc1cc(Br)c(N)c(C)c1OC(C)C1=NCCN1 (centres undefined) | > 100 |  |  | 
25 | Cc1cccc(C)c1SC(C)C1=NCCN1 (centres undefined) | > 100 |  | 0 | 
26 | Cc1ccc2[nH]ccc2c1OC(C)C1=NCCN1.ClCCl (centres undefined) | 1.6 | 3.77 |  | Activity [11]: rats died due to convulsive side effects; ED50 [3]: 1.2 mg/kg
27 | CC(Oc1cccc2ccccc12)C1=NCCN1 (centres undefined) | 17.9 | 4.35 | 0 | Activity [8]: inactive; ED50 [3]: 16.1 mg/kg
28 | COc1cccc(OC(C)C2=NCCN2)c1C (centres undefined) | > 100 |  |  | 
29 | Cc1ccc(OC(C)C2=NCCN2)c(C)c1 (centres undefined) | 24.1 | 4.35 |  | 
30 | CCc1ccccc1OC(C)C1=NCCN1 (centres undefined) | 22.9 | 4.23 |  | Activity [7]: moderate activity
31 | Cc1ncccc1OC(C)C1=NCCN1 (centres undefined) |  |  |  | ED50 [12]: > 100 mg/kg
32 | Cc1ccc2ccccc2c1OC(C)C1=NCCN1 (centres undefined) | > 100 |  | 0 | 
33 | CCOC(=O)Nc1ccc(C)c(OC(C)C2=NCCN2)c1C (centres undefined) | 3 | 4.4 |  | Activity [7]: moderate activity; Activity [4]: Active
34 | Cc1cc(C(=O)O)cc(C)c1OC(C)C1=NCCN1 (centres undefined) | > 100 |  | 0 | 
35 | CC(Oc1ccc2ccccc2c1)C1=NCCN1 (centres undefined) | > 100 |  | 0 | 
36 | Cc1cccc(C)c1OC(C)C1=NCCN1 (centres undefined) | 1.7 | 4.39 |  | Activity [9]: Active; ED50 [3]: 2.7 mg/kg
37 | CC(Oc1c(Cl)cccc1Cl)C1=NCCN1 (centres undefined) [LOFEXIDINE] | < 2 |  |  | 
38 | Cc1ccc(N)cc1OC(C)C1=NCCN1 (centres undefined) | > 100 |  | 0 | 

Row | Compound | ED50 [1] [mg/kg] | logP ([2]; read-out: logP) | Activity [5] | further results
39 | Cc1cc(Br)cc(C)c1OC(C)C1=NCCN1 (centres undefined) | > 100 |  |  | 
40 | CCC(Oc1c(C)cccc1C)C1=NCCN1 (centres undefined) | 5.2 | 4.88 | 0 | 
41 | Cc1c(O)cccc1OC(C)C1=NCCN1 (centres undefined) | 17.2 | 3.21 |  | Activity [8]: inactive; Activity [7]: moderate activity
42 | CC(Oc1cccc2[nH]ccc12)C1=NCCN1 (centres undefined) | 5.7 | 3.12 |  | Activity [9]: Active; ED50 [3]: 6.6 mg/kg; Activity [4]: Active
43 | Cc1c(N)cc(N)c(C)c1OC(C)C1=NCCN1 (centres undefined) |  |  |  | ED50 [12]: 32 mg/kg
44 | Cc1c(N)cccc1OC(C)C1=NCCN1 (single isomer, unassigned) |  |  |  | Activity [4]: Active
45 | CC(=O)Nc1cccc(OC(C)C2=NCCN2)c1C (centres undefined) | 7 | 2.43 | 0 | 
46 | CC(Oc1cccc(N)c1)C1=NCCN1 (centres undefined) | > 100 |  | 0 | 
47 | Cc1cccc(C)c1OC(C)(C)C1=NCCN1 | 3.7 | 4.66 |  | Activity [9]: Active
48 | Clc1cccc(Cl)c1NC1=NCCN1 [CLONIDINE] | 0.3 |  |  | 
49 | CCOC(=O)Nc1cccc(OC(C)C2=NCCN2)c1C (centres undefined) | 9.5 | 3.27 | 0 | ED50 [3]: 4.6 mg/kg; Activity [4]: Active
50 | Cc1c(OCc2ccccc2)cccc1OC(C)C1=NCCN1 (centres undefined) | > 100 |  |  | Activity [7]: moderate activity
51 | Cc1cccc(C)c1OC(CCO)C1=NCCN1 (centres undefined) | 6.9 | 2.89 |  | Activity [8]: inactive; Activity [7]: moderate activity
52 | Cc1cc([N+](=O)[O-])cc(C)c1OC(C)C1=NCCN1 (centres undefined) | > 100 |  | 0 | 
53 | Cc1cccc(C)c1OC(C)C1=NC2CCCCC2N1 (centres undefined) | 24.1 |  |  | 
54 | COc1cccc(OC)c1OC(C)C1=NCCN1 (centres undefined) | > 100 |  |  | 
55 | Cc1cc(C)c(OC(C)C2=NCCN2)c(C)c1 (centres undefined) | 11.1 | 5 | 0 | Activity [8]: inactive
56 | CC(Oc1cncc2ccccc12)C1=NCCN1 (centres undefined) | 21.7 |  |  | 
